Measured values reported in US20070276011A1, “Plasminogen Activator Inhibitor-1 Inhibitor” (priority 2003, published 2007).

Tests used:
recombinant human PAI-1 [1] = molecular target: T1, recombinant human PAI-1 (Homo sapiens, UniProt P05121); assay: PAI-1 inhibitory activity, Test Method A (tPA fluorogenic substrate, Tris buffer pH8.0, 37 C); assay type: biochemical; conditions: for IC50: 50% inhibitory concentration of PAI-1 activity, according to the aforementioned method; for Inhibitory Ratio at 25 μM (%): Test Method A
T1 sequence (P05121 24-402): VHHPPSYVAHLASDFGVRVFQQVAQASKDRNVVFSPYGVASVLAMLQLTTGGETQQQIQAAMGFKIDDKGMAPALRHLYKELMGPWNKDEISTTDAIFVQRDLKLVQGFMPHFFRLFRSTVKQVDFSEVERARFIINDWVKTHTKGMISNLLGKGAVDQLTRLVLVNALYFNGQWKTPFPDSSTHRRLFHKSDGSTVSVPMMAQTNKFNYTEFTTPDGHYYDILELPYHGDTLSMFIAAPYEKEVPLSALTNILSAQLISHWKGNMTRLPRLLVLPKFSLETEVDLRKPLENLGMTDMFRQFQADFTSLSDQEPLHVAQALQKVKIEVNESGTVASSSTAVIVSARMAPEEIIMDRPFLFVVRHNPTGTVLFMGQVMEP

recombinant human PAI-1 [2] = molecular target: T1, recombinant human PAI-1; assay: Inhibition of complex formation of PAI-1 and tPA (SDS-PAGE); assay type: biochemical; conditions: 100 μM concentration
Method: To a 2.5 μL solution obtained by diluting a DMSO solution of the test compound at 4-fold concentration of the test concentration with PBS(-), 5 μL of 150 nM recombinant human PAI-1 solution adjusted with a phosphate buffer (pH6.6, 0.05M Sodium Phosphate, 0.1 M NaCl, 1 mM EDTA) was added, and reacted for 5 minutes at 37° C. […] of 600 nM recombinant human one-chain tPA solution adjusted with PBS(-) was added, and further reacted for 5 minutes at 37° C. 10 μL of stop buffer (1.25 mM Tris-HCl pH6.8, 4% SDS, 0.01% BPB, 14% Glycerol) was added, heated for 30 seconds at 100° C., and then the total amount of 20 μL was applied to 10% SDS-PAGE gel electrophoresis. When the test compound was not added as being a control, a band of PAI-1-tPA complex was observed.

rat thrombosis model = assay: Tests in rat thrombosis model (carotid shunt, thrombus weight); assay type: in vivo; conditions: intraperitoneally 30 mg/kg/day for 8 days beforehand, control 94.9±3.3 mg, n=4, p<0.01
Method: Catheters for shunt were inserted into the right carotid artery and the left carotid artery of a rat, blood was circulated for 30 minutes, and weights of thromboses adhered to threads placed inside the catheters were measured.

[3] = tested on: mouse heart transplantation model; assay: Tests in mouse (murine) heart transplantation model; assay type: in vivo; conditions: p<0.05
recombinant human PAI-1 [4] = molecular target: T1, recombinant human PAI-1; assay: PAI-1 inhibitory activity, Test Method B (tPA fluorogenic substrate, Tris buffer pH7.5, room temperature); assay type: biochemical; conditions: 25 μM test compound; Test Method B (cells marked "method B")
Method: To a 90 μL solution obtained by diluting a DMSO solution of the test compound at 2.2-fold concentration of the test concentration (=final concentration when fluorogenic substrate was added) with a Tris buffer (pH7.5), 10 μL of 120 nM recombinant human PAI-1 solution adjusted with pH6.6 phosphate buffer was added, and incubated for 15 minutes at room temperature. 50 μL of 800IU/ml two-chain tPA (activity standard) solution adjusted with Tris buffer (pH7.5) was added, and incubated for 30 minutes at room temperature. […] Fluorescence was measured at the excitation wavelength=360 nm, emission wavelength=460 or 465 nm using a microplete reader (SPECTRAFLUOR or GENios) by TECAN. The fluorescence intensities in the presence of the PAI-1 as the control (DMSO) or in the absence of the PAI-1 (tPA alone) were taken as 100% and 0% of PAI-1 activities, respectively, and inhibitory ratios of PAI-1 activities in the presence of the test compound were obtained. […]
In either method of Test Method A or B, fluorescence of tPA activation by the test compound in the absence of PAI-1 or that of the test compound was not observed.
In the following table, “method B” described in the column of the inhibitory ratio means that the results were measured by the above Test Method B. The other results indicated were measured by the above Test Method A.

SMILES	IC50 (recombinant human PAI-1 [1]) [µM]	Inhibitory Ratio at 25 μM (%) (recombinant human PAI-1 [1]; test compound 25 μM)	inhibition of the complex formation of PAI-1 and tPA observed with SDS-PAGE (recombinant human PAI-1 [2])	Inhibitory Ratio at 25 μM (%) (recombinant human PAI-1 [4])	also measured
O=C1SC(=Cc2cc(O)c(O)c(O)c2)C(=O)N1Cc1ccc(Cl)c(Cl)c1 [compound 10, 5-(3,4,5-Trihydroxybenzylidene)-3-(3,4-dichlorobenzyl)thiazolidine-2,4-dione]	0.45	>99	completely inhibited	–	weight of thrombus (rat thrombosis model): 67.2 ± 6.3 mg; ratio of fibrous lesion 60 days after the transplantation ([3]; class II mismatch allograft, control 44.5±2.7%, n=5): 18.8±2.2%; Vascular endothelial hyperplasia (ratio of thickened endothelium to the internal elastic lamina); incidence of vascular intimal thickening ([3]; class II mismatch allograft, control 64.5±5.8%): 21.7±4.9%; graft survival ([3]; major mismatch allograft Balb/c to C57BL/6, intraperitoneally 20 mg/kg/day, control 7.2±0.2 days): 9.0 ± 0.7 days
O=C1SC(=Cc2ccc(O)c(O)c2)C(=O)N1Cc1ccc(Cl)cc1Cl [compound 23, 5-(3,4-dihydroxybenzylidene)-3-(2,4-dichlorobenzyl)thiazolidine-2,4-dione]	0.25	>99	completely inhibited	–	melting point: 202 °C (dec.)
O=C(O)c1cccc(C=C2SC(=O)N(Cc3ccc(Cl)c(Cl)c3)C2=O)c1 [compound 350, 5-(3-Carboxybenzylidene)-3-(3,4-dichlorobenzyl)thiazolidine-2,4-dione]	–	–	–	75 (method B) %	–
COC(=O)c1ccc(CN2C(=O)SC(=Cc3ccc(O)c(C(=O)O)c3)C2=O)cc1 [compound 409, 5-(3-Carboxy-4-hydroxybenzylidene)-3-(4-methoxycarbonylbenzyl)-thiazolidine-2,4-dione]	–	–	–	23 (method B) %	–
CCOC1=NN(c2ccc([N+](=O)[O-])cc2)C(=O)C1=Cc1cc(/C=C/c2ccccc2)ccc1O [compound 517]	0.48	–	completely inhibited	–	Inhibitory Ratio at 25 μM (%) (recombinant human PAI-1 [1]; 25 μM test compound): >99%
